Measured values taken from article PMC11372076, “A dual inhibitor of PIP5K1C and PIKfyve prevents SARS-CoV-2 entry into cells” (Experimental & Molecular Medicine, 2024).

How the values were obtained:
PI4KA (PI4K alpha) = assay: SelectScreen Kinase Profiling Service (PIPK profiling); type: biochemical; details: 1 μM UNI418; [ATP] 10 μM
Text: (§1) UNI418 has a core structure consisting of 4-quinazolinamine (Fig. 1a, green), which is often found in kinase inhibitors. […] The phosphoinositide (PI) system is a crucial regulatory mechanism in membrane trafficking and is tightly regulated through phosphorylation cascades by multiple phosphatidylinositol phosphate kinases (PIPKs)[30]. We hypothesized that UNI418 may inhibit PIPK(s) and performed PIPK profiling analysis. […] To test whether UNI418 interacts with PIP5K1C and PIKfyve, we performed a CETSA, which determines the characteristics of protein stabilization upon ligand binding to the target protein[31]. UNI418- or DMSO-treated cell lysates were incubated at different temperatures, and the presence of the target protein in the soluble fraction was analyzed by Western blotting (Fig. 1c).
(§2) Fig. 1 UNI418 specifically targets PIP5K1 and PIKfyve. a Chemical structure of UNI418. The 4-quinazolinamine core is highlighted in green. b Table of the kinase profiling analysis. Inhibition of several kinases was determined at a 1 μM concentration of UNI418 and analyzed by the SelectScreen Kinase Profiling Service (Thermo Fisher Scientific). c Cellular thermal shift assay. Ectopically expressed GFP-PIP5K1C and GFP-PIKfyve were heated to the indicated temperatures with/without UNI418, and the presence of protein in the soluble fraction was analyzed by Western blot analysis. TEXT PRINTED IN THE PICTURE: (b) UNI418: % Inhibition (mean): 11 ([ATP] Tested (μM): 10; Kinase Tested: PI4K2A (PI4K2 alpha)); % Inhibition (mean): 4 ([ATP] Tested (μM): 10; Kinase Tested: PI4K2B (PI4K2 beta)); % Inhibition (mean): -6 ([ATP] Tested (μM): 10; Kinase Tested: PI4KA (PI4K alpha)); % Inhibition (mean): 48 ([ATP] Tested (μM): Km app; Kinase Tested: PI4KB (PI4K beta)); % Inhibition (mean): 20 ([ATP] Tested (μM): 10; Kinase Tested: PIK3C2B (PI3K-C2 beta)); % Inhibition (mean): 22 ([ATP] Tested (μM): 10; Kinase Tested: PIK3C2G (PI3K-C2 gamma)); % Inhibition (mean): 4 ([ATP] Tested (μM): 100; Kinase Tested: PIK3C3 (hVPS34)); % Inhibition (mean): 8 ([ATP] Tested (μM): 10; Kinase Tested: PIK3CA/PIK3R3 (p110 alpha/p55 gamma)); % Inhibition (mean): 7 ([ATP] Tested (μM): 10; Kinase Tested: PIK3CB/PIK3R2 (p110 beta/p85 beta)); % Inhibition (mean): 9 ([ATP] Tested (μM): 10; Kinase Tested: PIP4K2A); % Inhibition (mean): 67 ([ATP] Tested (μM): 10; Kinase Tested: PIP5K1A); % Inhibition (mean): 93 ([ATP] Tested (μM): 10; Kinase Tested: PIP5K1B); % Inhibition (mean): 93 ([ATP] Tested (μM): 10; Kinase Tested: PIP5K1C); % Inhibition (mean): 100 ([ATP] Tested (μM): 100; Kinase Tested: PIKFYVE) | (b) Apilimod: % Inhibition (mean): 100 ([ATP] Tested (μM): 100; Kinase Tested: PIKFYVE) […]

PIK3C3 (hVPS34) = assay: as above; type: biochemical; details: 1 μM UNI418; [ATP] 100 μM
Text: as §1, §2

PIP4K2A = assay: as above; type: biochemical; details: 1 μM UNI418; [ATP] 10 μM
Text: as §1, §2

PIK3C2B (PI3K-C2 beta) = assay: as above; type: biochemical; details: 1 μM UNI418; [ATP] 10 μM
Text: as §1, §2

PI4K2B (PI4K2 beta) = assay: as above; type: biochemical; details: 1 μM UNI418; [ATP] 10 μM
Text: as §1, §2

[1] = test system: PIK3CA/PIK3R3 (p110 alpha/p55 gamma); assay: as above; type: biochemical; details: 1 μM UNI418; [ATP] 10 μM
Text: as §1, §2

PI4K2A (PI4K2 alpha) = assay: as above; type: biochemical; details: 1 μM UNI418; [ATP] 10 μM
Text: as §1, §2

PI4KB (PI4K beta) = assay: as above; type: biochemical; details: 1 μM UNI418; [ATP] Km app
Text: as §1, §2

PIK3C2G (PI3K-C2 gamma) = assay: as above; type: biochemical; details: 1 μM UNI418; [ATP] 10 μM
Text: as §1, §2

[2] = test system: PIK3CB/PIK3R2 (p110 beta/p85 beta); assay: as above; type: biochemical; details: 1 μM UNI418; [ATP] 10 μM
Text: as §1, §2

RPE1 cells = assay: LAMP1 accumulation (Western blot and immunofluorescence); type: cell-based
Text: Supplementary Fig. 9 UNI418 is not a simple lysosomotropic agent. a Western blot of LAMP1 with UNI418 and Chloroquine. GAPDH was used as a loading control. NT, not treated. b Immunofluorescence images showing accumulation of LAMP1 in RPE1 cells with the indicated concentration of Chloroquine and UNI418 treatment, and images within the white rectangular boxes are zoomed in on the right side. Scale bar, 20 µm. c The mean of intensity in individual cell was quantified. Data presented as mean ± SEMs, n >20.
Significance was determined by Student’s t-test, ***p < 0.001.
(1 picture or pasted object on this page, not shown here)

cathepsin L = assay: Cathepsin L maturation by Western blot; type: cell-based; details: Vero cells

SMILES: c1ccc(-c2cc(Nc3nc(-c4ccncc4)nc4ccccc34)n[nH]2)cc1 [UNI418, N -(5-phenyl-1 H -pyrazol-3-yl)-2-(4-pyridinyl)-4-quinazolinamine]
- % Inhibition (mean) (PI4KA (PI4K alpha)): -6%
- % Inhibition (mean) (PIK3C3 (hVPS34)): 4%
- % Inhibition (mean) (PIP4K2A): 9%
- % Inhibition (mean) (PIK3C2B (PI3K-C2 beta)): 20%
- % Inhibition (mean) (PI4K2B (PI4K2 beta)): 4%
- % Inhibition (mean) [1]: 8%
- % Inhibition (mean) (PI4K2A (PI4K2 alpha)): 11%
- % Inhibition (mean) (PI4KB (PI4K beta)): 48%
- % Inhibition (mean) (PIK3C2G (PI3K-C2 gamma)): 22%
- % Inhibition (mean) [2]: 7%
- accumulation of LAMP1 or LAMP1-positive lysosomes (RPE1 cells): did not cause the accumulation
- proteolytic maturation of cathepsin L (cathepsin L): considerably inhibited
